Experimental data as given in the NIST ThermoML archive (doi:10.1016/j.jct.2012.03.003).
± gives the expanded uncertainty stated by the source.

Assay: xn = mol fraction of the nth substance listed
Settings: Liquid, Vibrating tube method

COc1cc2c(cc1O)CC1c3c(cc(O)c(OC)c3-2)CCN1C (stereo not given) [boldine] + CCO
Settings	mass density [kg/m3]
323.04 K, 16000 kPa, x1 = 0.0074	793.69 ± 0.9
323.04 K, 16000 kPa, x1 = 0.0196	821.98 ± 0.86
323.04 K, 17000 kPa, x1 = 0.0074	794.55 ± 0.9
323.04 K, 17000 kPa, x1 = 0.0196	822.81 ± 0.86
323.04 K, 18000 kPa, x1 = 0.0074	795.4 ± 0.9
323.04 K, 18000 kPa, x1 = 0.0196	823.62 ± 0.86
323.04 K, 19000 kPa, x1 = 0.0074	796.23 ± 0.91
323.04 K, 19000 kPa, x1 = 0.0196	824.42 ± 0.86
323.04 K, 20000 kPa, x1 = 0.0074	797.04 ± 0.91
323.04 K, 20000 kPa, x1 = 0.0196	825.2 ± 0.87
323.05 K, 1000 kPa, x1 = 0.0267	820.88 ± 0.7
323.05 K, 2000 kPa, x1 = 0.0267	821.74 ± 0.7
323.05 K, 3000 kPa, x1 = 0.0267	822.62 ± 0.7
323.05 K, 4000 kPa, x1 = 0.0267	823.5 ± 0.7
323.05 K, 5000 kPa, x1 = 0.0267	824.37 ± 0.7
323.05 K, 6000 kPa, x1 = 0.0267	825.26 ± 0.71
323.05 K, 7000 kPa, x1 = 0.0267	826.15 ± 0.71
323.05 K, 8000 kPa, x1 = 0.0267	827.02 ± 0.71
323.05 K, 9000 kPa, x1 = 0.0267	827.89 ± 0.71
323.05 K, 10000 kPa, x1 = 0.0267	828.78 ± 0.71
323.05 K, 11000 kPa, x1 = 0.0267	829.64 ± 0.71
323.05 K, 12000 kPa, x1 = 0.0267	830.5 ± 0.71
323.05 K, 13000 kPa, x1 = 0.0267	831.36 ± 0.72
323.05 K, 14000 kPa, x1 = 0.0267	832.21 ± 0.72
323.05 K, 15000 kPa, x1 = 0.0267	833.04 ± 0.72
323.05 K, 16000 kPa, x1 = 0.0267	833.87 ± 0.72
323.05 K, 17000 kPa, x1 = 0.0267	834.68 ± 0.72
323.05 K, 18000 kPa, x1 = 0.0267	835.48 ± 0.73
323.05 K, 19000 kPa, x1 = 0.0267	836.27 ± 0.73
323.05 K, 20000 kPa, x1 = 0.0267	837.04 ± 0.73
323.11 K, 1000 kPa, x1 = 0.0136	793.39 ± 0.96
323.11 K, 2000 kPa, x1 = 0.0136	794.29 ± 0.96
323.11 K, 3000 kPa, x1 = 0.0136	795.2 ± 0.96
323.11 K, 4000 kPa, x1 = 0.0136	796.12 ± 0.96
323.11 K, 5000 kPa, x1 = 0.0136	797.04 ± 0.96
323.11 K, 6000 kPa, x1 = 0.0136	797.96 ± 0.96
323.11 K, 7000 kPa, x1 = 0.0136	798.88 ± 0.96
323.11 K, 8000 kPa, x1 = 0.0136	799.8 ± 0.96
323.11 K, 9000 kPa, x1 = 0.0136	800.72 ± 0.97
323.11 K, 10000 kPa, x1 = 0.0136	801.63 ± 0.97
323.11 K, 11000 kPa, x1 = 0.0136	802.53 ± 0.97
323.11 K, 12000 kPa, x1 = 0.0136	803.44 ± 0.97
323.11 K, 13000 kPa, x1 = 0.0136	804.33 ± 0.97
323.11 K, 14000 kPa, x1 = 0.0136	805.21 ± 0.97
323.11 K, 15000 kPa, x1 = 0.0136	806.08 ± 0.97
323.11 K, 16000 kPa, x1 = 0.0136	806.95 ± 0.97
323.11 K, 17000 kPa, x1 = 0.0136	807.79 ± 0.98
323.11 K, 18000 kPa, x1 = 0.0136	808.63 ± 0.98
323.11 K, 19000 kPa, x1 = 0.0136	809.44 ± 0.98
323.11 K, 20000 kPa, x1 = 0.0136	810.25 ± 0.98
332.92 K, 1000 kPa, x1 = 0.0012	757.69 ± 0.86
332.92 K, 2000 kPa, x1 = 0.0012	758.72 ± 0.86
332.92 K, 3000 kPa, x1 = 0.0012	759.75 ± 0.87
332.92 K, 4000 kPa, x1 = 0.0012	760.77 ± 0.87
332.92 K, 5000 kPa, x1 = 0.0012	761.81 ± 0.87
332.92 K, 6000 kPa, x1 = 0.0012	762.85 ± 0.87
332.92 K, 7000 kPa, x1 = 0.0012	763.86 ± 0.87
332.92 K, 8000 kPa, x1 = 0.0012	764.88 ± 0.87
332.92 K, 9000 kPa, x1 = 0.0012	765.9 ± 0.88
332.92 K, 10000 kPa, x1 = 0.0012	766.9 ± 0.88
332.92 K, 11000 kPa, x1 = 0.0012	767.9 ± 0.88
332.92 K, 12000 kPa, x1 = 0.0012	768.88 ± 0.88
332.92 K, 13000 kPa, x1 = 0.0012	769.87 ± 0.88
332.92 K, 14000 kPa, x1 = 0.0012	770.83 ± 0.89
332.92 K, 15000 kPa, x1 = 0.0012	771.78 ± 0.89
332.92 K, 16000 kPa, x1 = 0.0012	772.72 ± 0.89
332.92 K, 17000 kPa, x1 = 0.0012	773.63 ± 0.89
332.92 K, 18000 kPa, x1 = 0.0012	774.53 ± 0.9
332.92 K, 19000 kPa, x1 = 0.0012	775.42 ± 0.9
332.92 K, 20000 kPa, x1 = 0.0012	776.29 ± 0.9
332.93 K, 1000 kPa, x1 = 0.0074	770.77 ± 0.88
332.93 K, 2000 kPa, x1 = 0.0074	771.77 ± 0.88
332.93 K, 3000 kPa, x1 = 0.0074	772.79 ± 0.89
332.93 K, 4000 kPa, x1 = 0.0074	773.79 ± 0.89
332.93 K, 5000 kPa, x1 = 0.0074	774.8 ± 0.89
332.93 K, 6000 kPa, x1 = 0.0074	775.81 ± 0.89
332.93 K, 7000 kPa, x1 = 0.0074	776.8 ± 0.89
332.93 K, 8000 kPa, x1 = 0.0074	777.8 ± 0.89
332.93 K, 9000 kPa, x1 = 0.0074	778.8 ± 0.89
332.93 K, 10000 kPa, x1 = 0.0074	779.77 ± 0.9
332.93 K, 11000 kPa, x1 = 0.0074	780.75 ± 0.9
332.93 K, 12000 kPa, x1 = 0.0074	781.71 ± 0.9
332.93 K, 13000 kPa, x1 = 0.0074	782.66 ± 0.9
332.93 K, 14000 kPa, x1 = 0.0074	783.61 ± 0.9
332.93 K, 15000 kPa, x1 = 0.0074	784.53 ± 0.91
332.93 K, 16000 kPa, x1 = 0.0074	785.45 ± 0.91
332.93 K, 17000 kPa, x1 = 0.0074	786.34 ± 0.91
332.93 K, 18000 kPa, x1 = 0.0074	787.23 ± 0.91
332.93 K, 19000 kPa, x1 = 0.0074	788.09 ± 0.92
332.93 K, 20000 kPa, x1 = 0.0074	788.95 ± 0.92
332.95 K, 1000 kPa, x1 = 0.0196	799.67 ± 0.84
332.95 K, 2000 kPa, x1 = 0.0196	800.63 ± 0.84
332.95 K, 3000 kPa, x1 = 0.0196	801.6 ± 0.84
332.95 K, 4000 kPa, x1 = 0.0196	802.56 ± 0.84
332.95 K, 5000 kPa, x1 = 0.0196	803.52 ± 0.85
332.95 K, 6000 kPa, x1 = 0.0196	804.48 ± 0.85
332.95 K, 7000 kPa, x1 = 0.0196	805.45 ± 0.85
332.95 K, 8000 kPa, x1 = 0.0196	806.4 ± 0.85
332.95 K, 9000 kPa, x1 = 0.0196	807.35 ± 0.85
332.95 K, 10000 kPa, x1 = 0.0196	808.29 ± 0.85
332.95 K, 11000 kPa, x1 = 0.0196	809.23 ± 0.85
332.95 K, 12000 kPa, x1 = 0.0196	810.15 ± 0.85
332.95 K, 13000 kPa, x1 = 0.0196	811.07 ± 0.85
332.95 K, 14000 kPa, x1 = 0.0196	811.98 ± 0.85
332.95 K, 15000 kPa, x1 = 0.0196	812.86 ± 0.86
332.95 K, 16000 kPa, x1 = 0.0196	813.75 ± 0.86
332.95 K, 17000 kPa, x1 = 0.0196	814.61 ± 0.86
332.95 K, 18000 kPa, x1 = 0.0196	815.46 ± 0.86
332.95 K, 19000 kPa, x1 = 0.0196	816.3 ± 0.86
332.95 K, 20000 kPa, x1 = 0.0196	817.11 ± 0.87
333 K, 1000 kPa, x1 = 0.0267	811.86 ± 0.7
333 K, 2000 kPa, x1 = 0.0267	812.8 ± 0.7
333 K, 3000 kPa, x1 = 0.0267	813.76 ± 0.7
333 K, 4000 kPa, x1 = 0.0267	814.69 ± 0.71
333 K, 5000 kPa, x1 = 0.0267	815.65 ± 0.71
333 K, 6000 kPa, x1 = 0.0267	816.59 ± 0.71
333 K, 7000 kPa, x1 = 0.0267	817.53 ± 0.71
333 K, 8000 kPa, x1 = 0.0267	818.45 ± 0.71
333 K, 9000 kPa, x1 = 0.0267	819.38 ± 0.71
333 K, 10000 kPa, x1 = 0.0267	820.29 ± 0.71
333 K, 11000 kPa, x1 = 0.0267	821.22 ± 0.71
333 K, 12000 kPa, x1 = 0.0267	822.11 ± 0.72
333 K, 13000 kPa, x1 = 0.0267	823.01 ± 0.72
333 K, 14000 kPa, x1 = 0.0267	823.9 ± 0.72
333 K, 15000 kPa, x1 = 0.0267	824.77 ± 0.72
333 K, 16000 kPa, x1 = 0.0267	825.63 ± 0.72
333 K, 17000 kPa, x1 = 0.0267	826.48 ± 0.73
333 K, 18000 kPa, x1 = 0.0267	827.32 ± 0.73
333 K, 19000 kPa, x1 = 0.0267	828.13 ± 0.73
333 K, 20000 kPa, x1 = 0.0267	828.94 ± 0.73
333.04 K, 1000 kPa, x1 = 0.0136	784.43 ± 0.96
333.04 K, 2000 kPa, x1 = 0.0136	785.41 ± 0.96
333.04 K, 3000 kPa, x1 = 0.0136	786.41 ± 0.96
333.04 K, 4000 kPa, x1 = 0.0136	787.39 ± 0.96
333.04 K, 5000 kPa, x1 = 0.0136	788.38 ± 0.96
333.04 K, 6000 kPa, x1 = 0.0136	789.37 ± 0.97
333.04 K, 7000 kPa, x1 = 0.0136	790.36 ± 0.97
333.04 K, 8000 kPa, x1 = 0.0136	791.33 ± 0.97
333.04 K, 9000 kPa, x1 = 0.0136	792.31 ± 0.97
333.04 K, 10000 kPa, x1 = 0.0136	793.27 ± 0.97
333.04 K, 11000 kPa, x1 = 0.0136	794.24 ± 0.97
333.04 K, 12000 kPa, x1 = 0.0136	795.2 ± 0.97
333.04 K, 13000 kPa, x1 = 0.0136	796.14 ± 0.97
333.04 K, 14000 kPa, x1 = 0.0136	797.07 ± 0.98
333.04 K, 15000 kPa, x1 = 0.0136	797.98 ± 0.98
333.04 K, 16000 kPa, x1 = 0.0136	798.89 ± 0.98
333.04 K, 17000 kPa, x1 = 0.0136	799.78 ± 0.98
333.04 K, 18000 kPa, x1 = 0.0136	800.65 ± 0.98
333.04 K, 19000 kPa, x1 = 0.0136	801.51 ± 0.98
333.04 K, 20000 kPa, x1 = 0.0136	802.34 ± 0.99
